Patent US20030194373A1, “Angiogenesis targeting molecules” (priority 1998, published 2003)

How the values were obtained:
[1] = system: angiogenesis; settings: compared with fumagillin; cited from earlier work
[2] = target: T1, αvβ3 receptor (Homo sapiens, UniProt P05106+P06756); assay: Cell adhesion assay with HUVECs and vitronectin; type: cell-based; settings: HUVECs, FIG. 5
T1 construct: The HUVECs are known to express KDR, Flt-1 and αvβ3 receptors; host or cells: HUVEC
Procedure: HUVECs (BioWhittaker) were cultured on gelatin-coated plates in MCDB 131 media supplemented with 15% fetal bovine serum (FBS), 4 ng/ml basic fibroblast growth factor, 10 ng/ml epidermal growth factor, and 10 U/ml heparin; cells were used in experiments at passages 2-10. The HUVECs are known to express KDR, Flt-1 and αvβ3 receptors.
HUVECs were harvested using 15 mM EDTA pH8.0, washed 3 times, and resuspended in serum-free media. 4×10^4 cells were preincubated either alone (control) or with test compound for 15 minutes at 37° C., then incubated in 96 well plates coated with known integrin ligand—eg. 5 μg/ml vitronectin (Sigma Aldrich Canada, Oakville, ON) coated 3 hours., 37° C., or RGD-ECM precoated plates (Chemicon International, Temecula, Calif.)—and blocked with 1% bovine serum albumin (BSA). Cells were allowed to adhere for 1-2 hours at 37° C. Unbound cells were removed by washing with phosphate-buffered saline (PBS) and the remaining adherent cells were fixed with 2% paraformaldehyde (30 minutes, room temperature). Adhesion was quantitated by cell staining with crystal violet followed by dye extraction with 10% acetic acid. The absorbance was measured at 595 nm in a microplate reader (Bio-Rad Laboratories, Richmond, Calif.). The sequence RGDS was used as a positive control, and RGES was used as a negative control. […]

[3] = target: KDR/Flk-1; settings: KDR/Flk-1 receptor; read-out: binding affinity to VEGF (KDR/Flk-1); cited from earlier work
[4] = target: Flt-1 (Homo sapiens, UniProt P17948); settings: Flt-1 receptor; read-out: binding affinity to VEGF (Flt-1); cited from earlier work
Flt-1, sequence (P17948 27-1338, species assumed): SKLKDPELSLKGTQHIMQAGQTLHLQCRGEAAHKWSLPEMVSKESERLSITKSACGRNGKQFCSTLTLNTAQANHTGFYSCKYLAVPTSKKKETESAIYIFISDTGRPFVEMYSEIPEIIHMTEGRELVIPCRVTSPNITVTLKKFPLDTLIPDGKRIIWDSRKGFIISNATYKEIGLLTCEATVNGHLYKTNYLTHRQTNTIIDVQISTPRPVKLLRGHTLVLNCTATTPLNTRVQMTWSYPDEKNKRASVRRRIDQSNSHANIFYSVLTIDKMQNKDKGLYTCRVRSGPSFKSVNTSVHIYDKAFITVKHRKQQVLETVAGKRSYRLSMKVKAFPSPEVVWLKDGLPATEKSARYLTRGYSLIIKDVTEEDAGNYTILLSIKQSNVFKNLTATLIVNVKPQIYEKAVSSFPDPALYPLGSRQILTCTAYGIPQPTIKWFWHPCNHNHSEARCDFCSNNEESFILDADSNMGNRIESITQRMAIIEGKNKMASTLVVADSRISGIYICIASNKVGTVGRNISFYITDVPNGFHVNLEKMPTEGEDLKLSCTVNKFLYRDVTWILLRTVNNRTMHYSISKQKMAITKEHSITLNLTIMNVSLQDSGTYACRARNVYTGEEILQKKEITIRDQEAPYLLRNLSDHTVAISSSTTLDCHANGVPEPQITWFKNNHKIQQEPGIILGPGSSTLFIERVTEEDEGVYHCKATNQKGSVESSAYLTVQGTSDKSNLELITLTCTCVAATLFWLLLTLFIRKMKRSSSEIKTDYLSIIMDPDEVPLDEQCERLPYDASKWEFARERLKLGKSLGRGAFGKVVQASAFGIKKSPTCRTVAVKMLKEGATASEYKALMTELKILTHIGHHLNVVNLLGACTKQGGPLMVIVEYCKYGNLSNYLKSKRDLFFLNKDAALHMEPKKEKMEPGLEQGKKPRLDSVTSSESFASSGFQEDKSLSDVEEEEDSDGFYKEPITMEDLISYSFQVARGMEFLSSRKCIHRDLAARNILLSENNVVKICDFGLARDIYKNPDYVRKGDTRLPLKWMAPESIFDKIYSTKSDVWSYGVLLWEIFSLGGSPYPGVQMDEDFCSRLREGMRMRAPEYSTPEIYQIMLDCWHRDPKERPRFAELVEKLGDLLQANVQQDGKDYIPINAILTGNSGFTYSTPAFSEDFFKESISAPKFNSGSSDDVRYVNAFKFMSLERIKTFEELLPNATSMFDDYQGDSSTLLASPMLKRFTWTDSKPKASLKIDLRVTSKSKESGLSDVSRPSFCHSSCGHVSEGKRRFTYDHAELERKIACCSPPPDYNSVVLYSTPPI

T1 sequence (P06756 31-889 limits assumed): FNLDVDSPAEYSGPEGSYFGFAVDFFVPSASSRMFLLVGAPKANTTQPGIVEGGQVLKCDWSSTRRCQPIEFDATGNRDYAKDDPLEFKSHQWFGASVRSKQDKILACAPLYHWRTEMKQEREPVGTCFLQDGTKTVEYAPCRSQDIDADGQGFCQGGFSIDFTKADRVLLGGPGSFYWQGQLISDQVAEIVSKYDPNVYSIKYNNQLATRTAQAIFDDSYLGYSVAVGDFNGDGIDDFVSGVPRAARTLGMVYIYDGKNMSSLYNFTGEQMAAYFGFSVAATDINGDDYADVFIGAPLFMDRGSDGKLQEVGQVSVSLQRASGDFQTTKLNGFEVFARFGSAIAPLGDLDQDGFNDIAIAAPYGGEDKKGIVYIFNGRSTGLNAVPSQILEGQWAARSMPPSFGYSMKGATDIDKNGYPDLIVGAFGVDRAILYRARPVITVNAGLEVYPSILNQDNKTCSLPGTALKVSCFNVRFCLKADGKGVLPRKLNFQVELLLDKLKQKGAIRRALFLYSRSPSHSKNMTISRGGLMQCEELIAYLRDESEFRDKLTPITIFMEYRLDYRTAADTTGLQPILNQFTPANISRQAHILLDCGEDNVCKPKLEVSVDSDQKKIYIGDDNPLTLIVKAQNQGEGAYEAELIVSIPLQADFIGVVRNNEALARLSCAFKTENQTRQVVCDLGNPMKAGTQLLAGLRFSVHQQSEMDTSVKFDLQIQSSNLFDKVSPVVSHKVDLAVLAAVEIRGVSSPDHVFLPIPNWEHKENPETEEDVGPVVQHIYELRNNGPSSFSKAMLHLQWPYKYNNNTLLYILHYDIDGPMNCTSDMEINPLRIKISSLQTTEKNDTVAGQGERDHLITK
T1 sequence (P06756 891-1048 partner limits assumed): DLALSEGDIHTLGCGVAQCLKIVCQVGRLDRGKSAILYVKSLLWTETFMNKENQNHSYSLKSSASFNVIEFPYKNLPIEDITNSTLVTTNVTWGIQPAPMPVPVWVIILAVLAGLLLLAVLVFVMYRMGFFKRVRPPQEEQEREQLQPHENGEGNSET
T1 sequence (P05106 27-788): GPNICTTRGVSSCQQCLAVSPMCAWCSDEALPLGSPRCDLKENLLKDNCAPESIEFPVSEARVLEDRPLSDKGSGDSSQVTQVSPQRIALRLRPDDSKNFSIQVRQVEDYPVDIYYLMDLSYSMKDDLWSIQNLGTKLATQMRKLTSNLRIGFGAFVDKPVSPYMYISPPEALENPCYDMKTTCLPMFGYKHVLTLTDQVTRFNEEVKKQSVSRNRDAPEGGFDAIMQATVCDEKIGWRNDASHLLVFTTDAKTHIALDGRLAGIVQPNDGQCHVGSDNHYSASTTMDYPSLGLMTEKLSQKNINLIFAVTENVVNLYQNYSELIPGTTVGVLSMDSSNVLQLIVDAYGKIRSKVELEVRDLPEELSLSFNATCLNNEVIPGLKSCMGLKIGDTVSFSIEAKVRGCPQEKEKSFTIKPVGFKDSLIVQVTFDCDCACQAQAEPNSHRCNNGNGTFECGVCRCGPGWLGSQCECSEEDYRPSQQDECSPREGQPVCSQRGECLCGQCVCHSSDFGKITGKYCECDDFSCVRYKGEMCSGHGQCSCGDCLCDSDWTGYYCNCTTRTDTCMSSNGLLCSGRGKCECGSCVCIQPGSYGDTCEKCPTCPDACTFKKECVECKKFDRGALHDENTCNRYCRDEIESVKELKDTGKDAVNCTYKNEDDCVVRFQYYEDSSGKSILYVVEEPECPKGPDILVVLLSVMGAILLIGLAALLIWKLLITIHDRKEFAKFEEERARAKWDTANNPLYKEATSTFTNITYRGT

CO[C@@H]1C(=O)CC[C@]2(CO2)[C@@]1(O)[C@@]1(C)O[C@@H]1CC=C(C)C [Ovalicin]
potency as inhibitor of angiogenesis relative to fumagillin [1]: 50 times

CO[C@@H]1[C@H](OC(=O)NC(=O)CCl)CC[C@]2(CO2)[C@H]1[C@@]1(C)O[C@@H]1CC=C(C)C [TNP-470, O-(chloroacetylcarbamoyl)fumagillol]
potency as inhibitor of angiogenesis relative to fumagillin [1]: 50 times

R-G-D-S [RGDS, reference compound]
effect on HUVEC binding to vitronectin / affinity for αvβ3 receptor ([2]; vitronectin coated plate): eliminated the binding | inhibition of binding ([2]; vitronectin): 100%

VEGF
Kd [3]: 0.125 nM | Kd [4]: 0.025 nM
